Data as given in ChEMBL document CHEMBL4382244, “QSAR of 1,4-benzoxazin-3-one antimicrobials and their drug design perspectives” (2018).
Values after ≈ are worked out from the molar mass of the structure shown.

Legend:
Assay type in all cases: functional
Candida albicans [1] = assay: Antifungal activity against Candida albicans after 24 hrs by disk diffusion method
Escherichia coli [2] = assay: Antibacterial activity against Escherichia coli ATCC 25922 after 24 hrs by disk diffusion method; conditions: ATCC 25922, 24 h
Candida albicans [3] = assay: Antifungal activity against Candida albicans after 24 hrs by spectrophotometric method
Staphylococcus aureus [4] = assay: Antibacterial activity against Staphylococcus aureus ATCC 25923 after 24 hrs by disk diffusion method; conditions: ATCC 25923, 24 h
Escherichia coli [5] = assay: Antibacterial activity against Escherichia coli
Pseudomonas aeruginosa [6] = assay: Antibacterial activity against Pseudomonas aeruginosa
Escherichia coli [7] = assay: Antibacterial activity against Escherichia coli ATCC 25922 after 16 to 20 hrs by microdilution method
Staphylococcus aureus [8] = assay: Antibacterial activity against Staphylococcus aureus
Klebsiella pneumoniae = assay: Antibacterial activity against Klebsiella pneumoniae RSKK 576 after 16 to 20 hrs by microdilution method
Staphylococcus aureus [9] = assay: Antibacterial activity against Staphylococcus aureus ATCC 29213 after 16 to 20 hrs by microdilution method
Candida albicans [10] = assay: Antifungal activity against Candida albicans
Enterococcus faecalis = assay: Antibacterial activity against Enterococcus faecalis ATCC 29212 after 16 to 20 hrs by microdilution method
Bacillus subtilis = assay: Antibacterial activity against Bacillus subtilis
Pseudomonas aeruginosa [11] = assay: Antibacterial activity against Pseudomonas aeruginosa ATCC 10145 after 16 to 20 hrs by microdilution method
Candida albicans [12] = assay: Antifungal activity against Candida albicans CA-6 by micro-dilution method
Pichia kudriavzevii = assay: Antifungal activity against Candida krusei ATCC 6258 by micro-dilution method
Saccharomyces cerevisiae = assay: Antifungal activity against Saccharomyces cerevisiae ATCC 9763 by micro-dilution method

| Compound | MIC (Candida albicans [1]) [µM] | MIC (Candida albicans [3]) [µM] | MIC (Staphylococcus aureus [4]) [µM] | MIC (Escherichia coli [7]) [µM] | MIC (Klebsiella pneumoniae) [µM] | MIC (Staphylococcus aureus [9]) [µM] | MIC (Enterococcus faecalis) [µM] | MIC (Pseudomonas aeruginosa [11]) [µM] | also measured |
| --- | --- | --- | --- | --- | --- | --- | --- | --- | --- |
| CCOC(=O)CC1Oc2ccc(C)cc2NC1=O (stereo not given) |  |  |  | 457 (≈ 114 µg/mL) | 457 (≈ 114 µg/mL) | 914 (≈ 228 µg/mL) | 457 (≈ 114 µg/mL) | 457 (≈ 114 µg/mL) | MIC (Escherichia coli [5]): 89.2 µM (≈ 22.2 µg/mL); MIC (Pseudomonas aeruginosa [6]): 178 µM (≈ 44.5 µg/mL); MIC (Staphylococcus aureus [8]): 89.2 µM (≈ 22.2 µg/mL); MIC (Candida albicans [10]): 89.2 µM (≈ 22.2 µg/mL); MIC (Bacillus subtilis): 89.2 µM (≈ 22.2 µg/mL) |
| CCOC(=O)CC1Oc2cc([N+](=O)[O-])ccc2NC1=O (stereo not given) |  |  |  |  |  |  |  |  | MIC (Escherichia coli [5]): 241 µM (≈ 67.6 µg/mL); MIC (Pseudomonas aeruginosa [6]): 121 µM (≈ 33.8 µg/mL); MIC (Staphylococcus aureus [8]): 121 µM (≈ 33.8 µg/mL); MIC (Candida albicans [10]): 121 µM (≈ 33.8 µg/mL); MIC (Bacillus subtilis): 241 µM (≈ 67.6 µg/mL) |
| CCOC(=O)CC1Oc2cccc([N+](=O)[O-])c2NC1=O (stereo not given) |  |  |  | 457 (≈ 128 µg/mL) | 457 (≈ 128 µg/mL) | 914 (≈ 256 µg/mL) | 457 (≈ 128 µg/mL) | 457 (≈ 128 µg/mL) |  |
| CCOC(=O)CC1Oc2ccc(C(O)Cn3ccnc3)cc2N(C)C1=O (stereo not given) |  |  |  |  |  |  |  |  | MIC (Candida albicans [12]): 39.2 µM (≈ 14.1 µg/mL); MIC (Pichia kudriavzevii): 39.2 µM (≈ 14.1 µg/mL); MIC (Saccharomyces cerevisiae): 19.6 µM (≈ 7.04 µg/mL) |
| CCOC(=O)CC1Oc2cc(N)ccc2NC1=O (stereo not given) |  |  |  | 1030 (≈ 257 µg/mL) | 1030 (≈ 257 µg/mL) | 1030 (≈ 257 µg/mL) | 1030 (≈ 257 µg/mL) | 1030 (≈ 257 µg/mL) | MIC (Escherichia coli [5]): 201 µM (≈ 50.2 µg/mL); MIC (Pseudomonas aeruginosa [6]): 201 µM (≈ 50.2 µg/mL); MIC (Staphylococcus aureus [8]): 201 µM (≈ 50.2 µg/mL); MIC (Candida albicans [10]): 100 µM (≈ 25.1 µg/mL); MIC (Bacillus subtilis): 201 µM (≈ 50.2 µg/mL) |
| CCOC(=O)CC1Oc2cc(C)ccc2NC1=O (stereo not given) |  |  |  |  |  |  |  |  | MIC (Escherichia coli [5]): 151 µM (≈ 37.7 µg/mL); MIC (Pseudomonas aeruginosa [6]): 151 µM (≈ 37.7 µg/mL); MIC (Staphylococcus aureus [8]): 303 µM (≈ 75.5 µg/mL); MIC (Bacillus subtilis): 303 µM (≈ 75.5 µg/mL) |
| CCOC(=O)CC1Oc2ccc(Cl)cc2NC1=O (stereo not given) |  |  |  | 949 to 1030 (≈ 256 to 277 µg/mL) | 949 to 1030 (≈ 256 to 277 µg/mL) | 949 to 1030 (≈ 256 to 277 µg/mL) | 949 to 1030 (≈ 256 to 277 µg/mL) | 949 to 1030 (≈ 256 to 277 µg/mL) | MIC (Escherichia coli [5]): 100 µM (≈ 27 µg/mL); MIC (Pseudomonas aeruginosa [6]): 100 µM (≈ 27 µg/mL); MIC (Staphylococcus aureus [8]): 201 µM (≈ 54.1 µg/mL); MIC (Candida albicans [10]): 100 µM (≈ 27 µg/mL); MIC (Bacillus subtilis): 201 µM (≈ 54.1 µg/mL) |
| CCOC(=O)CC1Oc2ccc(C(=O)OCC)cc2NC1=O (stereo not given) |  |  |  | 407 (≈ 125 µg/mL) | 407 (≈ 125 µg/mL) | 814 (≈ 250 µg/mL) | 407 (≈ 125 µg/mL) | 407 (≈ 125 µg/mL) | MIC (Escherichia coli [5]): 79.4 µM (≈ 24.4 µg/mL); MIC (Pseudomonas aeruginosa [6]): 159 µM (≈ 48.8 µg/mL); MIC (Staphylococcus aureus [8]): 159 µM (≈ 48.8 µg/mL); MIC (Candida albicans [10]): 39.7 µM (≈ 12.2 µg/mL); MIC (Bacillus subtilis): 79.4 µM (≈ 24.4 µg/mL) |
| CCOC(=O)CC1Oc2ccc(F)cc2NC1=O (stereo not given) |  |  |  | 1010 (≈ 256 µg/mL) | 1010 (≈ 256 µg/mL) | 1010 (≈ 256 µg/mL) | 1010 (≈ 256 µg/mL) | 1010 (≈ 256 µg/mL) |  |
| COC(=O)c1ccc2c(c1)OC(O)C(=O)N2 (stereo not given) |  | 4480 (≈ 1000 µg/mL) |  |  |  |  |  |  |  |
| CCOC(=O)CC1Oc2ccc(S(=O)(=O)CC)cc2NC1=O (stereo not given) |  |  |  | 391 (≈ 128 µg/mL) | 391 (≈ 128 µg/mL) | 782 (≈ 256 µg/mL) | 391 (≈ 128 µg/mL) | 391 (≈ 128 µg/mL) |  |
| CCOC(=O)CC1Oc2ccc(C(Cn3ccnc3)OCc3ccc(Cl)cc3)cc2N(C)C1=O (stereo not given) |  |  |  |  |  |  |  |  | MIC (Candida albicans [12]): 915 µM (≈ 443 µg/mL); MIC (Pichia kudriavzevii): 114 µM (≈ 55.3 µg/mL); MIC (Saccharomyces cerevisiae): 915 µM (≈ 443 µg/mL) |
| CCOC(=O)CC1Oc2ccc([N+](=O)[O-])cc2NC1=O (stereo not given) |  |  |  | 457 (≈ 128 µg/mL) | 457 (≈ 128 µg/mL) | 914 (≈ 256 µg/mL) | 457 (≈ 128 µg/mL) | 457 (≈ 128 µg/mL) |  |

The next lines start with results.

| MIC (Candida albicans [1]) [µM] | MIC (Candida albicans [3]) [µM] | MIC (Staphylococcus aureus [4]) [µM] | MIC (Escherichia coli [7]) [µM] | MIC (Klebsiella pneumoniae) [µM] | MIC (Staphylococcus aureus [9]) [µM] | MIC (Enterococcus faecalis) [µM] | MIC (Pseudomonas aeruginosa [11]) [µM] | Compound | also measured |
| --- | --- | --- | --- | --- | --- | --- | --- | --- | --- |
| 2020 (≈ 333 µg/mL) | 2120 (≈ 350 µg/mL) | 2020 (≈ 333 µg/mL) |  |  |  |  |  | O=C1COc2ccccc2N1O | MIC (Escherichia coli [2]): 7570 µM (≈ 1250 µg/mL) |
| 2370 (≈ 500 µg/mL) | 2370 (≈ 500 µg/mL) | 1580 (≈ 333 µg/mL) |  |  |  |  |  | COc1ccc2c(c1)OC(O)C(=O)N2O (stereo not given) | MIC (Escherichia coli [2]): 3150 µM (≈ 666 µg/mL) |
| 850 (≈ 166 µg/mL) | 768 (≈ 150 µg/mL) | 3410 (≈ 666 µg/mL) |  |  |  |  |  | COc1ccc2c(c1)OCC(=O)N2O | MIC (Escherichia coli [2]): 6400 µM (≈ 1250 µg/mL) |
| 3410 (≈ 666 µg/mL) | 3330 (≈ 650 µg/mL) | 2560 (≈ 500 µg/mL) |  |  |  |  |  | COC1Oc2ccccc2N(O)C1=O (stereo not given) |  |
| 7280 (≈ 1500 µg/mL) |  | 7280 (≈ 1500 µg/mL) |  |  |  |  |  | N#Cc1ccc2c(c1)OC(O)C(=O)N2O (stereo not given) |  |
|  |  |  | 1030 (≈ 256 µg/mL) | 1030 (≈ 256 µg/mL) | 1030 (≈ 256 µg/mL) | 1030 (≈ 256 µg/mL) | 1030 (≈ 256 µg/mL) | CCOC(=O)CC1Oc2cccc(C)c2NC1=O (stereo not given) |  |
|  |  |  | 1090 (≈ 225 µg/mL) | 1090 (≈ 225 µg/mL) | 1090 (≈ 225 µg/mL) | 1090 (≈ 225 µg/mL) | 544 (≈ 113 µg/mL) | O=C(O)CC1Oc2ccccc2NC1=O (stereo not given) | MIC (Escherichia coli [5]): 212 µM (≈ 44 µg/mL); MIC (Pseudomonas aeruginosa [6]): 212 µM (≈ 44 µg/mL); MIC (Staphylococcus aureus [8]): 106 µM (≈ 22 µg/mL); MIC (Candida albicans [10]): 106 µM (≈ 22 µg/mL); MIC (Bacillus subtilis): 212 µM (≈ 44 µg/mL) |
|  | 5120 (≈ 1000 µg/mL) |  |  |  |  |  |  | COc1ccc2c(c1)OC(O)C(=O)N2 (stereo not given) |  |
| 1860 (≈ 333 µg/mL) | 1950 (≈ 350 µg/mL) | 1860 (≈ 333 µg/mL) |  |  |  |  |  | Cc1ccc2c(c1)OCC(=O)N2O | MIC (Escherichia coli [2]): 2790 µM (≈ 500 µg/mL) |
| 3410 (≈ 666 µg/mL) |  | 2560 (≈ 500 µg/mL) |  |  |  |  |  | Cc1ccc2c(c1)OC(O)C(=O)N2O (stereo not given) | MIC (Escherichia coli [2]): 3410 µM (≈ 666 µg/mL) |
| 6630 (≈ 1500 µg/mL) |  | 734 (≈ 166 µg/mL) |  |  |  |  |  | O=C1C(O)Oc2cc([N+](=O)[O-])ccc2N1O (stereo not given) | MIC (Escherichia coli [2]): 3680 µM (≈ 833 µg/mL) |
|  |  |  | 411 (≈ 128 µg/mL) | 411 (≈ 128 µg/mL) | 411 (≈ 128 µg/mL) | 206 (≈ 64 µg/mL) | 411 (≈ 128 µg/mL) | CCOC(=O)CC1Oc2ccc(-c3ccccc3)cc2NC1=O (stereo not given) |  |
|  | 2980 (≈ 666 µg/mL) |  |  |  |  |  |  | CC(=O)ON1C(=O)C(O)Oc2ccccc21 (stereo not given) |  |
|  |  |  | 949 (≈ 279 µg/mL) | 949 (≈ 279 µg/mL) | 949 (≈ 279 µg/mL) | 949 (≈ 279 µg/mL) | 949 (≈ 279 µg/mL) | CCOC(=O)CC1Oc2cc([N+](=O)[O-])ccc2N(C)C1=O (stereo not given) | MIC (Escherichia coli [5]): 92.7 µM (≈ 27.3 µg/mL); MIC (Pseudomonas aeruginosa [6]): 92.7 µM (≈ 27.3 µg/mL); MIC (Staphylococcus aureus [8]): 185 µM (≈ 54.6 µg/mL); MIC (Candida albicans [10]): 46.4 µM (≈ 13.7 µg/mL); MIC (Bacillus subtilis): 185 µM (≈ 54.6 µg/mL) |
|  | 6700 (≈ 1000 µg/mL) |  |  |  |  |  |  | O=C1COc2ccccc2N1 |  |
| 3680 (≈ 666 µg/mL) | 3680 (≈ 666 µg/mL) | 2760 (≈ 500 µg/mL) |  |  |  |  |  | O=C1C(O)Oc2ccccc2N1O (stereo not given) | MIC (Escherichia coli [2]): 6900 µM (≈ 1250 µg/mL) |
| 2730 (≈ 500 µg/mL) | 2730 (≈ 500 µg/mL) | 1820 (≈ 333 µg/mL) |  |  |  |  |  | O=C1COc2cc(F)ccc2N1O [7-F-D-DIBOA] | MIC (Escherichia coli [2]): 4550 µM (≈ 833 µg/mL) |
|  |  | 4480 (≈ 1000 µg/mL) |  |  |  |  |  | COC(=O)c1ccc2c(c1)OCC(=O)N2O [7-MeOCO-D-DIBOA] |  |
